TGI data for 7 compounds are collected here from PubChem BioAssay (NCI).

Test in all cases: DTP human tumour cell line panel, 48 h
Experiment [1] relates to OVCAR-3 ovarian.
The test system of experiment [2] is OVCAR-8 ovarian.
Experiment [3] has as its system KM12 colon.
Experiment [4] relates to NCI-H522 lung.
The subject of experiment [5] is HCT-15 colon.
Experiment [6] has as its system UO-31 renal.
Experiment [7] concerns MALME-3M melanoma.
Experiment [8] has as its system CCRF-CEM leukemia.
Experiment [9] concerns SK-MEL-2 melanoma.
Experiment [10] relates to SW-620 colon.
The test system of experiment [11] is LOX IMVI melanoma.
The subject of experiment [12] is SK-OV-3 ovarian.
The test system of experiment [13] is HOP-92 NSCLC.
For experiment [14], the system named is TK-10 renal.
Experiment [15] deals with ACHN renal.
Experiment [16] has as its system SK-MEL-28 melanoma.
Experiment [17] has as its system HS 578T breast.
The test system of experiment [18] is UACC-257 melanoma.
Experiment [19] has as its system SK-MEL-5 melanoma.
For experiment [20], the system named is IGROV1 ovarian.

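Assay format: 96-well plates, 48-hour exposure. TGI: total growth inhibition.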

A word on the TGI: it is the concentration at which net growth stops. `O=C1C(Cl)=CC2(C=C1Cl)CCN=c1c(O)c3c(c(O)c12)=NC=N3`: the total growth inhibition concentration (TGI) in experiment [1] is 89.1 µM; in experiment [2], > 100 µM; in experiment [3], > 100 µM; in experiment [4], 51.8 µM; in experiment [5] it was > 100 µM; in experiment [6], > 100 µM. Moreover, the TGI in [7] is 43.4 µM; in [8], > 100 µM; in experiment [9] it was 63.1 µM; in experiment [10], > 100 µM; in [11] it was 50.4 µM; in experiment [12], > 100 µM. For the same compound, the TGI in [13] is > 100 µM; in experiment [14] it was > 100 µM; in [15], > 100 µM; in [16], > 100 µM; in experiment [17], > 100 µM; in experiment [18], 52.4 µM. Also, the TGI in experiment [19] was 30.8 µM; in experiment [20], > 100 µM.

Take `COC(=O)/C(=N\N)C(C(=O)C(=O)Nc1cc(Cl)ccc1Cl)c1nc2ccc([N+](=O)[O-])cc2[nH]c1=O` (stereo not given): the TGI in [1], in experiment [2], in experiment [3], in experiment [4], in [5] and in experiment [6] was > 100 µM each time. The TGI in experiment [7], in experiment [8], in experiment [9], in experiment [10], in [11] and in experiment [12] was > 100 µM each time. In addition, the concentration for total growth inhibition (TGI) in [13], in experiment [14], in experiment [15], in experiment [16], in experiment [17] and in [18] was > 100 µM in each case. The TGI in experiment [19] and in experiment [20] was > 100 µM in each case.

Take `COC(=O)c1sc(=S)sc1SCc1cccc(CSc2sc(=S)sc2C(=O)OC)c1`: the TGI in [1], in experiment [2], in experiment [3], in experiment [4], in experiment [5] and in experiment [6] was > 100 µM each time. The TGI was > 100 µM in experiment [7]; > 100 µM in [8]; > 100 µM in experiment [9]; > 100 µM in [10]; > 100 µM in experiment [11]; 51.3 µM in [12]. Moreover, the TGI was 71.2 µM in experiment [13]; 96.9 µM in experiment [14]; > 100 µM in experiment [15]; > 100 µM in experiment [16]; > 100 µM in experiment [17]; > 100 µM in experiment [18]. For the same compound, the TGI in experiment [19] and in experiment [20] was > 100 µM in each case.

For the compound `Cc1cn([C@H]2C[C@@H](N3C(=O)c4ccccc4C3=O)[C@@H](CO[Si](C)(C)C(C)(C)C)O2)c(=O)[nH]c1=O`, the TGI in [1], in experiment [2], in [3], in experiment [4], in experiment [5] and in experiment [6] was > 100 µM in each case. For the same compound, the TGI in experiment [7], in experiment [8], in experiment [9], in experiment [10], in [11] and in experiment [12] was > 100 µM in each case. For the same compound, the TGI in [13], in experiment [14], in experiment [15], in experiment [16], in [17] and in experiment [18] was > 100 µM in each case. Also, the total growth inhibition concentration (TGI) in [19] and in [20] was > 100 µM each time.

In the case of `COC(=O)C(=O)C(C(=O)C(=O)Nc1cccc(OC)c1)c1nc2ccc(Cl)cc2[nH]c1=O` (stereo not given), the TGI in experiment [1], in [2], in experiment [3], in experiment [4], in experiment [5] and in experiment [6] was > 100 µM throughout. Moreover, the TGI in experiment [7], in experiment [8], in [9], in experiment [10], in experiment [11] and in experiment [12] was > 100 µM in each case. Further, the TGI in [13], in experiment [14], in [15], in experiment [16], in [17] and in [18] was > 100 µM throughout. Also, the TGI in experiment [19] and in experiment [20] was > 100 µM each time.

Turning to `O=C(/C=C/c1ccccc1)CCN1CCCCC1`, the TGI in experiment [1] was > 100 µM; in experiment [2] it was 38.4 µM; in experiment [3] it was > 100 µM; in [4] it was 47.4 µM; in [5] it was > 100 µM; in experiment [6], > 100 µM. Moreover, the TGI in experiment [7] was > 100 µM; in experiment [8] it was > 100 µM; in experiment [9], > 100 µM; in experiment [10], 41.6 µM; in experiment [11] it was 37.6 µM; in experiment [12], > 100 µM. The TGI in [13] was > 100 µM; in [14] it was > 100 µM; in experiment [15] it was > 100 µM; in [16] it was 58.5 µM; in experiment [17], > 100 µM; in experiment [18], > 100 µM. Also, the TGI in experiment [19] and in experiment [20] was > 100 µM each time.

Take `CCCCCC(=O)OC[n+]1cccc(-c2c(COC(=O)NC(C)C)c(COC(=O)NC(C)C)c3n2CCC3)c1`: the TGI is > 100 µM in [1]; > 100 µM in experiment [2]; > 100 µM in experiment [3]; 25.2 µM in experiment [4]; > 100 µM in [5]; > 100 µM in experiment [6]. Further, the total growth inhibition concentration (TGI) was > 100 µM in [7]; > 61 µM in [8]; 94.7 µM in experiment [9]; > 100 µM in experiment [10]; > 100 µM in experiment [11]; > 100 µM in [12]. The TGI in [13] is 77.2 µM; in experiment [14], > 100 µM; in experiment [15], > 100 µM; in experiment [16], > 100 µM; in experiment [17] it was > 100 µM; in experiment [18], > 100 µM. The TGI in experiment [19] and in experiment [20] was > 100 µM each time.
